According to publication PMC10675132, “Novel Coumarin Derivatives as Potential Urease Inhibitors for Kidney Stone Prevention and Antiulcer Therapy: From Synthesis to In Vivo Evaluation” (Pharmaceuticals, 2023):
Where two headings read alike, the source gives them in different places.

Target: jack bean urease (Canavalia ensiformis, UniProt P07374)
Experiment: indophenol urease inhibition assay ([…] nm)
Type: biochemical

jack bean urease, sequence (P07374 whole entry, looked up): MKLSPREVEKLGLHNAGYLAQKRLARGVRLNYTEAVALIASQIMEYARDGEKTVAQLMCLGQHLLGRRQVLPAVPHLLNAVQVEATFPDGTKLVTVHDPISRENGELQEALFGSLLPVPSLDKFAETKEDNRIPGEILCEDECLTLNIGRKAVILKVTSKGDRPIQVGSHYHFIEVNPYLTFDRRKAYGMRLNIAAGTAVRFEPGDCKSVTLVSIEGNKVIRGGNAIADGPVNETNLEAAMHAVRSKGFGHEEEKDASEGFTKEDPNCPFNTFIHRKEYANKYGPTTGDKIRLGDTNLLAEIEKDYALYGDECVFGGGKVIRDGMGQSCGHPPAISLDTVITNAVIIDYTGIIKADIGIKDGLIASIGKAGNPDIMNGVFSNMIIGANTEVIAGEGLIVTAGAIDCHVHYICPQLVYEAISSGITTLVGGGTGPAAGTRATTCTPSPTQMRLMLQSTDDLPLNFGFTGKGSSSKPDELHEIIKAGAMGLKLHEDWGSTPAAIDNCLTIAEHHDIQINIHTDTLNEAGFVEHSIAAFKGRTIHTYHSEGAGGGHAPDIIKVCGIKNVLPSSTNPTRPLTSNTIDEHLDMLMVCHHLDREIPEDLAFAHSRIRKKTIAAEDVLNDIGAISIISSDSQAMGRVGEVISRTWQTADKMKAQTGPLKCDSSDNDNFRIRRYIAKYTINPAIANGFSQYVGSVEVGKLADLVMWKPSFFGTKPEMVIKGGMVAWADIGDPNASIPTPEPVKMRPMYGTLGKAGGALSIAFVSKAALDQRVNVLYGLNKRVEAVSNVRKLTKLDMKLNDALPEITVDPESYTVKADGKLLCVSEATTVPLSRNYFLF

Compound | IC50 | IC50 (read-out: IC50 ± SEM)
O=c1cc(/N=C/c2cccc([N+](=O)[O-])c2)c2ccccc2o1 [3a, (E)-4-(3-nitrobenzylideneamino)-2H-chromen-2-one] | 0.412 µM | 
NC(N)=S [Thiourea, reference compound] |  | 0.14 µM
Cc1ccc(O)c(/C=N/c2cc(=O)oc3ccccc23)c1 [7a, (E)-4-(2-hydroxy-5-methylbenzylideneamino)-2H-chromen-2-one] | 0.112 µM | 
O=c1cc(/N=C/c2ccc([N+](=O)[O-])cc2)c2ccccc2o1 [5a, (E)-4-(4-nitrobenzylideneamino)-2H-chromen-2-one] | 0.322 µM | 
